According to ChEMBL document CHEMBL4145517, “Advances on photodynamic therapy of melanoma through novel ring-fused 5,15-diphenylchlorins” (Eur J Med Chem, 2018):
The source made the active and inactive calls. No cut-off for these calls is given here.

Assays:
A-375 [1] = assay: Photocytotoxicity against human A375 cells at 5 to 50 nM preincubated for 24 hrs followed by exposure to light with fluence rate of 7.5 mW/cm2 until 20J and measured after 24 hrs by MTT assay; format: functional, cell-based
A-375 [2] = assay: Decrease in intracellular superoxide anion generation in human A375 cells at 500 nM preincubated for 24 hrs followed by exposure to light with fluence rate of 7.5 mW/cm2 at 10 J and measured after 24 hrs by dihydroethidium staining-based fluorescence analysis; format: functional, cell-based
A-375 [3] = assay: Induction of p53 expression in human A375 cells at 50 nM preincubated for 24 hrs followed by exposure to light with fluence rate of 7.5 mW/cm2 at 10 J and measured after 24 hrs by Western blot analysis; format: functional, cell-based
A-375 [4] = assay: Photocytotoxicity against human A375 cells preincubated for 24 hrs followed by exposure to light with fluence rate of 7.5 mW/cm2 until 10 J measured after 24 hrs by MTT assay; format: functional, cell-based
A-375 [5] = assay: Increase in expression of reduced glutathione in human A375 cells up to 500 nM preincubated for 24 hrs followed by exposure to light with fluence rate of 7.5 mW/cm2 at 10 J and measured after 24 hrs by mercury orange staining-based fluorescence analysis; format: functional, cell-based
A-375 [6] = assay: Decrease in intracellular peroxides generation in human A375 cells at 500 nM preincubated for 24 hrs followed by exposure to light with fluence rate of 7.5 mW/cm2 at 10 J and measured after 24 hrs by DCFH2-DA staining-based fluorescence analysis; format: functional, cell-based
A-375 [7] = assay: Phototoxicity against human A375 cells assessed as reduction in cell viability up to 500 nM preincubated for 24 hrs followed by exposure to light with fluence rate of 7.5 mW/cm2 at 10 J and measured after 24 hrs in presence of hydroxyl radical scavenger D-mannitol by MTT assay; format: functional, cell-based
A-375 [8] = assay: Cell cycle arrest in human A375 cells assessed as accumulation at pre-G0 phase up to 500 nM preincubated for 24 hrs followed by exposure to light with fluence rate of 7.5 mW/cm2 at 10 J and measured after 24 hrs by propidium iodide/RNase-staining based flow cytometric analysis; format: functional
A-375 [9] = assay: Induction of apoptosis in human A375 cells at 50 nM preincubated for 24 hrs followed by exposure to light with fluence rate of 7.5 mW/cm2 at 10 J and measured after 24 hrs by Annexin-V/propidium iodide staining-based FACS analysis; format: functional, cell-based
[10] = Dark toxicity against human A375 cells at 1 to 10 uM after 24 hrs by MTT assay; format: cell-based; conditions: a-375, 24 h
A-375 [11] = assay: Phototoxicity against human A375 cells assessed as reduction in cell viability up to 500 nM preincubated for 24 hrs followed by exposure to light with fluence rate of 7.5 mW/cm2 at 10 J and measured after 24 hrs in presence of singlet oxygen scavenger sodium azide by MTT assay; format: functional, cell-based
[12] = Dark toxicity against human HFF1 cells at 1 to 10 uM after 24 hrs by MTT assay; format: cell-based; conditions: hff-1, 24 h
A-375 [13] = assay: Photocytotoxicity against human A375 cells at 5 to 500 nM preincubated for 24 hrs followed by exposure to light with fluence rate of 7.5 mW/cm2 until 5 to 10 J and measured after 24 hrs by MTT assay; format: functional, cell-based
[14] = Drug uptake in human A375 cells preincubated for 24 hrs followed by exposure to light with fluence rate of 7.5 mW/cm2 at 10 J measured after 24 hrs by fluorescence spectroscopic analysis; format: ADME, cell-based; conditions: a-375, 24 h
A-375 [15] = assay: Photocytotoxicity against human A375 cells assessed as decrease in cell viability by measuring protein content at >= 50 nM preincubated for 24 hrs followed by exposure to light with fluence rate of 7.5 mW/cm2 at 10 J and measured after 24 hrs by sulforhodamine B assay; format: functional, cell-based
A-375 [16] = assay: Induction of apoptosis in human A375 cells assessed as decrease in living cells at 500 nM preincubated for 24 hrs followed by exposure to light with fluence rate of 7.5 mW/cm2 at 10 J and measured after 24 hrs by Annexin-V/propidium iodide stainin-based FACS analysis; format: functional; design: scale not given: the % may be the effect or the level left
A-375 [17] = assay: Disruption of mitochondrial membrane potential in human A375 cells at 50 nM preincubated for 24 hrs followed by exposure to light with fluence rate of 7.5 mW/cm2 at 10 J and measured after 24 hrs by JC-1 staining-based assay; format: functional, cell-based
A-375 [18] = assay: Disruption of mitochondrial membrane potential in human A375 cells at 500 nM preincubated for 24 hrs followed by exposure to light with fluence rate of 7.5 mW/cm2 at 10 J and measured after 24 hrs by JC-1 staining-based assay; format: functional, cell-based
A-375 [19] = assay: Induction of apoptosis in human A375 cells assessed as increase in necrotic cells at 50 nM preincubated for 24 hrs followed by exposure to light with fluence rate of 7.5 mW/cm2 at 10 J and measured after 24 hrs by Annexin-V/propidium iodide stainin-based FACS analysis; format: functional, cell-based
[20] = Dark toxicity against human A375 cells at 5 to 10 uM after 24 hrs by MTT assay; format: cell-based; conditions: a-375, 24 h
[21] = Dark toxicity against human HFF1 cells at 5 to 10 uM after 24 hrs by MTT assay; format: cell-based; conditions: hff-1, 24 h
A-375 [22] = assay: Induction of apoptosis in human A375 cells assessed as increase in necrotic cells at 500 nM preincubated for 24 hrs followed by exposure to light with fluence rate of 7.5 mW/cm2 at 10 J and measured after 24 hrs by Annexin-V/propidium iodide stainin-based FACS analysis; format: functional, cell-based
A-375 [23] = assay: Cell cycle arrest in human A375 cells assessed as accumulation at G2/M phase up to 500 nM preincubated for 24 hrs followed by exposure to light with fluence rate of 7.5 mW/cm2 at 10 J and measured after 24 hrs by propidium iodide/RNase-staining based flow cytometric analysis; format: functional
A-375 [24] = assay: Cell cycle arrest in human A375 cells assessed as accumulation at G1 phase up to 500 nM preincubated for 24 hrs followed by exposure to light with fluence rate of 7.5 mW/cm2 at 10 J and measured after 24 hrs by propidium iodide/RNase-staining based flow cytometric analysis; format: functional

Drug uptake [14] | SMILES | Activity (A-375 [1]) | Activity (A-375 [2]) | Activity (A-375 [3]) | IC50 (A-375 [4]) [nM] | Activity (A-375 [5]) | Activity (A-375 [6]) | Activity (A-375 [7]) | Activity (A-375 [8]) | Activity (A-375 [9]) | Activity [10] | Activity (A-375 [11]) | Activity [12] | Activity (A-375 [13]) | Activity (A-375 [15]) | Activity (A-375 [16]) | Activity (A-375 [17]) | Activity (A-375 [18]) | also measured
Dose-dependent effect | COC(=O)c1nn2c(c1C(=O)OC)CC1c3cc4ccc([nH]4)c(-c4ccccc4)c4nc(cc5ccc([nH]5)c(-c5ccccc5)c(n3)C1C2)C=C4 (stereo not drawn) | Active | Active | Active | 14.3 | inactive | Active | Active | Active | Active | Non-Toxic | inactive | Non-Toxic | Active | Active | >50% | Active |  | 
Dose-dependent effect | COC(=O)c1nn2c(c1C(=O)OC)CC1c3nc(cc4ccc([nH]4)c(-c4ccccc4)c4nc(cc5ccc([nH]5)c3-c3ccccc3)C=C4)C1C2 (stereo not drawn) | Active | Active | Active | 14.5 | inactive | Active | Active | Active |  | Non-Toxic | Active | Non-Toxic | Active | Active | >50% | Active | Active | Activity (A-375 [19]): Active
Dose-dependent effect | OCc1nn2c(c1CO)CC1c3nc(cc4ccc([nH]4)c(-c4ccccc4)c4nc(cc5ccc([nH]5)c3-c3ccccc3)C=C4)C1C2 (stereo not drawn) | Active | Active | Active | 2.9 | inactive | Active | Active | Active | Active |  | Active |  | Active | Active | inactive | Active |  | Activity [20]: Toxic; Activity [21]: Toxic
Dose-dependent effect | OCc1nn2c(c1CO)CC1c3cc4ccc([nH]4)c(-c4ccccc4)c4nc(cc5ccc([nH]5)c(-c5ccccc5)c(n3)C1C2)C=C4 (stereo not drawn) | Active | Active | Active | 4.9 | inactive | Active | Active | Active | Active | Non-Toxic | inactive | Non-Toxic | Active | Active | >50% | Active | Active | Activity (A-375 [22]): Active; Activity (A-375 [23]): Active; Activity (A-375 [24]): Active
